From patent publication US12209087B2, “AKT1 modulators” (Alterome Therapeutics, Inc., priority 2022, dated 2025)

Target: T1, full length AKT E17K (Homo sapiens, UniProt P31749, E17K)
T1 construct: host or cells: HEK-293 (ATCC CRL-1573)
Experiment: NanoBRET Target Engagement (TE) Assay
Type: cell-based
Conditions: competitive tracer displacement in living cells, read-out: AKT1 E17K IC50
Description: The NanoBRET™ Target Engagement (TE) Intracellular Kinase Assays are based on the NanoBRET™ System (Promega Corporation), an energy transfer technique designed to measure molecular proximity in living cells. The NanoBRET™ TE Assays measure the apparent affinity of test compounds by competitive displacement of the NanoBRET™ tracer compound, which is a cell permeable molecule engineered to be reversibly bound to a NanoLuc® luciferase-kinase fusion expressed in cells. For compound screening, when a test compound binds to the selected kinase, the BRET signal is attenuated. […] All cells were evaluated for viability prior to transfection and optimization of the transfection was done prior to experimentation. […] Following transfection, cells were washed and resuspended in Opti-MEM. NanoBRET assays were performed in white, 384-well plates (Corning) at a density of […]. All example compounds were prepared as concentrated stock solutions in DMSO (Sigma-Aldrich). Compounds are dissolved in DMSO to make 10 mM stock solution. […] A Labcyte ECHO 550 compound dispenser was used to facilitate compound transfer directly to cells. Cells were equilibrated for 2 hr with energy transfer probes and example compound prior to BRET measurements. […] For target engagement analysis, the energy transfer probes were added to the cells at concentrations optimized for the target in question (AKT E17K). Following compound incubation, NanoBRET NanoGlo Substrate (Promega Cat #N157D) and Extracellular Nanoluc Inhibitor (Promega Cat #N235C) was added according to the manufacturer's recommended protocol, and luminescence was measured on Envision Reader (Perkin Elmer) Multimode Luminometer equipped with 450 nm BPfilter (donor) and 600 nm LPfilter (acceptor), using 0.5 s integration time. Milli-BRET units (mBU) are calculated by multiplying the raw BRET values by 1000. Apparent tracer affinity values (EC50) were determined using the sigmoidal dose-response (variable slope).
Competitive displacement data were then plotted and data were fit to determine the EC50 value for each example compound.

T1 sequence (P31749 whole entry E17K): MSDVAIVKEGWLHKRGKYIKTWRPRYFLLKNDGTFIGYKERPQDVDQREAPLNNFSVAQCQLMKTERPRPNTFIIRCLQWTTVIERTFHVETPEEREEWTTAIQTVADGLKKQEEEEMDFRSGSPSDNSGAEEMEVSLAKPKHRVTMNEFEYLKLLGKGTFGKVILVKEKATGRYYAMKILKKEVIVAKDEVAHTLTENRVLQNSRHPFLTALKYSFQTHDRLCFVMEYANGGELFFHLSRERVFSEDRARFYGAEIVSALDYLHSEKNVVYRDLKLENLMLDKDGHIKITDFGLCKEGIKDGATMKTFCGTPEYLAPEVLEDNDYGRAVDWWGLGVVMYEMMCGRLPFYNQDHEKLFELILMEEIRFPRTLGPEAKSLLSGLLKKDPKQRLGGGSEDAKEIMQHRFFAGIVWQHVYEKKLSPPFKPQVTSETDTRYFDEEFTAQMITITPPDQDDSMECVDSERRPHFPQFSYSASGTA

| Compound | IC50 |
| --- | --- |
| N#Cc1cccnc1C(=O)NC1CCN(Cc2ccc(-n3c(-c4cccnc4N)nc4cccnc43)cc2)CC1 [Example 28, N-(1-(4-(2-(2-Aminopyridin-3-yl)-3H-imidazo[4,5-b]pyridin-3-yl)benzyl)piperidin-4-yl)-3-cyanopicolinamide] | 0.6 to 10 µM |
| N#Cc1ccncc1C(=O)NC1CCN(Cc2ccc(-n3c(-c4cccnc4N)nc4cccnc43)cc2)CC1 [Example 29, N-(1-(4-(2-(2-Aminopyridin-3-yl)-3H-imidazo[4,5-b]pyridin-3-yl)benzyl)piperidin-4-yl)-4-cyanonicotinamide] | 0.6 to 10 µM |
| N#Cc1cccc(C(=O)NC2CCN(Cc3ccc(-n4c(-c5cccnc5N)nc5cccnc54)cc3)CC2)n1 [Example 30, N-(1-(4-(2-(2-Aminopyridin-3-yl)-3H-imidazo[4,5-b]pyridin-3-yl)benzyl)piperidin-4-yl)-6-cyanopicolinamide] | 0.6 to 10 µM |
| N#Cc1ccnc(C(=O)NC2CCN(Cc3ccc(-n4c(-c5cccnc5N)nc5cccnc54)cc3)CC2)c1 [Example 31, N-(1-(4-(2-(2-Aminopyridin-3-yl)-3H-imidazo[4,5-b]pyridin-3-yl)benzyl)piperidin-4-yl)-4-cyanopicolinamide] | 0.6 to 10 µM |
| N#Cc1nccc(C(=O)NC2CCN(Cc3ccc(-n4c(-c5cccnc5N)nc5cccnc54)cc3)CC2)n1 [Example 32, N-(1-(4-(2-(2-Aminopyridin-3-yl)-3H-imidazo[4,5-b]pyridin-3-yl)benzyl)piperidin-4-yl)-2-cyanopyrimidine-4-carboxamide] | 0.06 to 0.6 µM |
| N#Cc1cc(C(=O)NC2CCN(Cc3ccc(-n4c(-c5cccnc5N)nc5cccnc54)cc3)CC2)ncn1 [Example 33, N-(1-(4-(2-(2-Aminopyridin-3-yl)-3H-imidazo[4,5-b]pyridin-3-yl)benzyl)piperidin-4-yl)-6-cyanopyrimidine-4-carboxamide] | 0.6 to 10 µM |
| N#Cc1nc2cc(C(=O)NC3CCN(Cc4ccc(-n5c(-c6cccnc6N)nc6cccnc65)cc4)CC3)ccc2s1 [Example 34, N-(1-(4-(2-(2-aminopyridin-3-yl)-3H-imidazo[4,5-b]pyridin-3-yl)benzyl)piperidin-4-yl)-2-cyanobenzo[d]thiazole-5-carboxamide] | 0.06 to 0.6 µM |
| N#Cc1nc2cc(F)cc(C(=O)NC3CCN(Cc4ccc(-n5c(-c6cccnc6N)nc6cccnc65)cc4)CC3)c2s1 [Example 35, N-(1-(4-(2-(2-Aminopyridin-3-yl)-3H-imidazo[4,5-b]pyridin-3-yl)benzyl)piperidin-4-yl)-2-cyano-5-fluorobenzo[d]thiazole-7-carboxamide] | 0.06 to 0.6 µM |
| N#Cc1cnccc1C(=O)NC1CCN(Cc2ccc(-n3c(-c4cccnc4N)nc4cccnc43)cc2)CC1 [Example 36, N-(1-(4-(2-(2-Aminopyridin-3-yl)-3H-imidazo[4,5-b]pyridin-3-yl)benzyl)piperidin-4-yl)-3-cyanoisonicotinamide] | 0.6 to 10 µM |
| CC(=O)Nc1cccc(-c2ccc3nc(-c4cccnc4N)n(-c4ccc(CN5CCN(c6ccnc(C#N)c6)CC5)cc4)c3n2)c1 [Example 37, N-(3-(2-(2-Aminopyridin-3-yl)-3-(4-((4-(2-cyanopyridin-4-yl)piperazin-1-yl)methyl)phenyl)-3H-imidazo[4,5-b]pyridin-5-yl)phenyl)acetamide] | 0.015 to 0.06 µM |
| CC(=O)Nc1cccc(-c2ccc3nc(-c4cccnc4N)n(-c4ccc(CN5CCN(c6ccc(C#N)nc6)CC5)cc4)c3n2)c1 [Example 38, N-(3-(2-(2-Aminopyridin-3-yl)-3-(4-((4-(6-cyanopyridin-3-yl)piperazin-1-yl)methyl)phenyl)-3H-imidazo[4,5-b]pyridin-5-yl)phenyl)acetamide] | 0.06 to 0.6 µM |
| CC(=O)Nc1cccc(-c2ccc3nc(-c4cccnc4N)n(-c4ccc(CN5CCN(c6cccc(C#N)n6)CC5)cc4)c3n2)c1 [Example 39, N-(3-(2-(2-Aminopyridin-3-yl)-3-(4-((4-(6-cyanopyridin-2-yl)piperazin-1-yl)methyl)phenyl)-3H-imidazo[4,5-b]pyridin-5-yl)phenyl)acetamide] | 0.06 to 0.6 µM |
| CC(=O)Nc1cccc(-c2ccc3nc(-c4cccnc4N)n(-c4ccc(CN5CCN(c6cncc(C#N)n6)CC5)cc4)c3n2)c1 [Example 40, N-(3-(2-(2-aminopyridin-3-yl)-3-(4-((4-(6-cyanopyrazin-2-yl)piperazin-1-yl)methyl)phenyl)-3H-imidazo[4,5-b]pyridin-5-yl)phenyl)acetamide] | < 0.015 µM |
| CC(=O)Nc1cccc(-c2ccc3nc(-c4cccnc4N)n(-c4ccc(CN5CCN(c6cc(C#N)ncn6)CC5)cc4)c3n2)c1 [Example 41, N-(3-(2-(2-Aminopyridin-3-yl)-3-(4-((4-(6-cyanopyrimidin-4-yl)piperazin-1-yl)methyl)phenyl)-3H-imidazo[4,5-b]pyridin-5-yl)phenyl)acetamide] | < 0.015 µM |
| CC(=O)Nc1cccc(-c2ccc3nc(-c4cccnc4N)n(-c4ccc(CN5CCN(c6cnc(C#N)nc6)CC5)cc4)c3n2)c1 [Example 42, N-(3-(2-(2-Aminopyridin-3-yl)-3-(4-((4-(2-cyanopyrimidin-5-yl)piperazin-1-yl)methyl)phenyl)-3H-imidazo[4,5-b]pyridin-5-yl)phenyl)acetamide] | 0.015 to 0.06 µM |
| CC(=O)Nc1cccc(-c2ccc3nc(-c4cccnc4N)n(-c4ccc(CN5CCN(c6cnnc(C#N)c6)CC5)cc4)c3n2)c1 [Example 43, N-(3-(2-(2-Aminopyridin-3-yl)-3-(4-((4-(6-cyanopyridazin-4-yl)piperazin-1-yl)methyl)phenyl)-3H-imidazo[4,5-b]pyridin-5-yl)phenyl)acetamide] | 0.06 to 0.6 µM |
| CC(=O)Nc1cccc(-c2ccc3nc(-c4cccnc4N)n(-c4ccc(CN5CCN(c6ccnc(C#N)n6)CC5)cc4)c3n2)c1 [Example 44, N-(3-(2-(2-Aminopyridin-3-yl)-3-(4-((4-(2-cyanopyrimidin-4-yl)piperazin-1-yl)methyl)phenyl)-3H-imidazo[4,5-b]pyridin-5-yl)phenyl)acetamide] | < 0.015 µM |
| CC(=O)Nc1cccc(-c2ccc3nc(-c4cccnc4N)n(-c4ccc(CN5CCN(c6cc(C#N)cnn6)CC5)cc4)c3n2)c1 [Example 45, N-(3-(2-(2-Aminopyridin-3-yl)-3-(4-((4-(5-cyanopyridazin-3-yl)piperazin-1-yl)methyl)phenyl)-3H-imidazo[4,5-b]pyridin-5-yl)phenyl)acetamide] | 0.06 to 0.6 µM |
| CC(=O)Nc1cccc(-c2ccc3nc(-c4cccnc4N)n(-c4ccc(CN5CCN(c6nccc(C#N)n6)CC5)cc4)c3n2)c1 [Example 46, N-(3-(2-(2-Aminopyridin-3-yl)-3-(4-((4-(4-cyanopyrimidin-2-yl)piperazin-1-yl)methyl)phenyl)-3H-imidazo[4,5-b]pyridin-5-yl)phenyl)acetamide] | < 0.015 µM |
| N#Cc1nccc(NCc2ccc(-n3c(-c4cccnc4N)nc4cccnc43)cc2)n1 [Example 47, 4-((4-(2-(2-Aminopyridin-3-yl)-3H-imidazo[4,5-b]pyridin-3-yl)benzyl)amino)pyrimidine-2-carbonitrile] | 0.6 to 10 µM |
| N#Cc1nccc(N2CCN(Cc3ccc(-n4c(-c5cccnc5N)nc5ccc(-c6ccccc6)nc54)cc3)CC2)n1 [Example 49, 4-(4-(4-(2-(2-Aminopyridin-3-yl)-5-phenyl-3H-imidazo[4,5-b]pyridin-3-yl)benzyl)piperazin-1-yl)pyrimidine-2-carbonitrile] | < 0.015 µM |
| N#Cc1cnnc(NCc2ccc(-n3c(-c4cccnc4N)nc4cccnc43)cc2)c1 [Example 50, 6-((4-(2-(2-Aminopyridin-3-yl)-3H-imidazo[4,5-b]pyridin-3-yl)benzyl)amino)pyridazine-4-carbonitrile] | 0.6 to 10 µM |
| N#Cc1cnnc(NC2CCN(Cc3ccc(-n4c(-c5cccnc5N)nc5cccnc54)cc3)CC2)c1 [Example 51, 6-((1-(4-(2-(2-Aminopyridin-3-yl)-3H-imidazo[4,5-b]pyridin-3-yl)benzyl)piperidin-4-yl)amino)pyridazine-4-carbonitrile] | 0.6 to 10 µM |
| N#Cc1cnnc(N2CCN(Cc3ccc(-n4c(-c5cccnc5N)nc5ccc(-c6ccccc6)nc54)cc3)CC2)c1 [Example 53, 6-(4-(4-(2-(2-Aminopyridin-3-yl)-5-phenyl-3H-imidazo[4,5-b]pyridin-3-yl)benzyl)piperazin-1-yl)pyridazine-4-carbonitrile] | 0.06 to 0.6 µM |
| N#Cc1cnnc(NC2CCN(Cc3ccc(-n4c(-c5cccnc5N)nc5ccc(-c6ccccc6)nc54)cc3)CC2)c1 [Example 54, 6-((1-(4-(2-(2-Aminopyridin-3-yl)-5-phenyl-3H-imidazo[4,5-b]pyridin-3-yl)benzyl)piperidin-4-yl)amino)pyridazine-4-carbonitrile] | 0.06 to 0.6 µM |
| N#Cc1cc(C(=O)NC2CCN(Cc3ccc(-n4c(-c5cccnc5N)nc5ccc(-c6ccccc6)nc54)cc3)CC2)ccn1 [Example 55, N-(1-(4-(2-(2-Aminopyridin-3-yl)-5-phenyl-3H-imidazo[4,5-b]pyridin-3-yl)benzyl)piperidin-4-yl)-2-cyanoisonicotinamide] | 0.015 to 0.06 µM |
